Legend:
Assay type in all cases: biochemical
c-Src kinase (human) = molecular target: T1, c-Src kinase (human) (Homo sapiens, UniProt P12931); experiment: c-Src Kinase Assay; details: for IC50: read-out: c-Src IC50 (in parentheses); for inhibition at 2 µM / c-Src % Inhibition: test concentration of 2 μM, multiple values are separate assay results; for c-Src % Inhibition: 2 µM
T1 construct: purchased Upstate Biotechnology, Lake Placid, N.Y
Method in brief: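 Inhibition was read as 33P incorporation, counted on P30 filtermats, after a 40 min, 30° C reaction. Human c-Src acted on 100 μM Cdc2 peptide with 5 μM ATP (final), pH 7.0 MOPS/MgCl2. Values are percent inhibition at 2 μM compound, or IC50 where determined.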

HER-2 = molecular target: T2, HER-2 (Homo sapiens, UniProt P04626); experiment: HER-2 Kinase Assay; details: for inhibition at 1 µM: test concentration of 1 μM; for IC50: value in parentheses
T2 construct: His6 with thrombin site (N); purchased Proqinase (Freiburg, Germany)
Method in brief: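 GST/HIS6-tagged HER-2 aa 679–1255 kinase with biotinylated polyGluTyr (1.5 ng/μL), 1 μM ATP plus γ-33P-ATP, Mg2+/Mn2+, DTT, Hepes pH 7.5; 1 h at 30 °C. Substrate phosphorylation captured on streptavidin scintillation plates after EDTA/PBS washes; values are % inhibition at 1 μM or IC50.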

Lyn kinase (human) = molecular target: T3, Lyn kinase (human) (Homo sapiens, UniProt P07948); experiment: Lyn Kinase Assay; details: test concentration of 2 μM
T3 construct: purchased Upstate Biotechnology, Lake Placid, N.Y
Method in brief: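 Radiometric filter-binding assay with recombinant human Lyn, poly(Glu,Tyr) substrate (0.1 mg/mL final), 5 μM ATP plus γ-33P-ATP in MOPS pH 7.5/Mg acetate buffer; 40 min at 30 °C, stopped with phosphoric acid, counted by scintillation. Reported as percent inhibition at 2 μM, with IC50 (μM) where determined.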

T3 sequence (P07948 whole entry): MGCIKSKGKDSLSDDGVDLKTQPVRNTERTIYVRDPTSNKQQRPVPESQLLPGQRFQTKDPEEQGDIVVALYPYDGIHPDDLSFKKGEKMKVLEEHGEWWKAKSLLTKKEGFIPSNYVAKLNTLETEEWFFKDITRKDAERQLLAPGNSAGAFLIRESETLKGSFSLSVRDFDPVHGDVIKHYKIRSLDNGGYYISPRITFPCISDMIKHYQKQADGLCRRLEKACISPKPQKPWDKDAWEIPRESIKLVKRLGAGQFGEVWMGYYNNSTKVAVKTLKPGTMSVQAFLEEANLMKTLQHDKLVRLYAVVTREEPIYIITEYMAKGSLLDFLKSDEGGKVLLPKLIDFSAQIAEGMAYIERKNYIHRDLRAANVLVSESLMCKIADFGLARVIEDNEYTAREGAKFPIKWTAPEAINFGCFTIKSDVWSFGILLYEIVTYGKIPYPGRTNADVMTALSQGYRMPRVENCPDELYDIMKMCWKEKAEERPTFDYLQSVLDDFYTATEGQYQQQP
T2 sequence (P04626 679-1255): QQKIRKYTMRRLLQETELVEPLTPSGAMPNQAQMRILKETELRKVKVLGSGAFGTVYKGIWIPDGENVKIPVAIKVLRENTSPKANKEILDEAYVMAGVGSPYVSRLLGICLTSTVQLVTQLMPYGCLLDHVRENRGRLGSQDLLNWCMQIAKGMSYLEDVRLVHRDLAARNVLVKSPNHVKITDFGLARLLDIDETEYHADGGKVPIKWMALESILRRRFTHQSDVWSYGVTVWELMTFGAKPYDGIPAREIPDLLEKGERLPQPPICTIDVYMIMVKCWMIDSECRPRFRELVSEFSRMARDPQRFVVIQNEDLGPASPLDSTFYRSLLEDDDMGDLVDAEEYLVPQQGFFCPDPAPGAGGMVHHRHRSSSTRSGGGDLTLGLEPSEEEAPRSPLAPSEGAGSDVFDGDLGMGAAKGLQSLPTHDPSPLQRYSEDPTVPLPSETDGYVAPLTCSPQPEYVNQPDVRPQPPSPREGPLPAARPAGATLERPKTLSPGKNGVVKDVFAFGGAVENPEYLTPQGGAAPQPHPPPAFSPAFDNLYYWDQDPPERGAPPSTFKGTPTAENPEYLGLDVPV
T1 sequence (P12931 whole entry): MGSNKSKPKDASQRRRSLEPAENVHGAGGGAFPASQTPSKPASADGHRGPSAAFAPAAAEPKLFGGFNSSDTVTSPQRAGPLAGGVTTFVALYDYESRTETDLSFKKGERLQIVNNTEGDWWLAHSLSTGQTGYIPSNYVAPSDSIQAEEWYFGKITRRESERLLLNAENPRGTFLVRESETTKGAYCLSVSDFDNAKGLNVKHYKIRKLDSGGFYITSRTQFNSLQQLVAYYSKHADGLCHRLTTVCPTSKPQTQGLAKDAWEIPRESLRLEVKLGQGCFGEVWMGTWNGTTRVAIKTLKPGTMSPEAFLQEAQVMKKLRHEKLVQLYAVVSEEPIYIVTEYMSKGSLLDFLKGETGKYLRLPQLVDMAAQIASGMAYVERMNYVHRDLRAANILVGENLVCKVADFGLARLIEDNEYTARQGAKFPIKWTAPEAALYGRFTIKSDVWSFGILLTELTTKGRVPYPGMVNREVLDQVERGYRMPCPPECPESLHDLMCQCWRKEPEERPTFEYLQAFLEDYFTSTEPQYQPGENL

| Structure (SMILES) | IC50 (c-Src kinase (human)) [µM] | inhibition at 1 µM (HER-2) [%] | IC50 (HER-2) [nM] | inhibition at 2 µM (c-Src kinase (human)) [%] | inhibition at 2 µM (Lyn kinase (human)) [%] | c-Src % Inhibition (c-Src kinase (human)) [%] | % Inhibition (Lyn) (Lyn kinase (human); 2 µM) [%] |
| --- | --- | --- | --- | --- | --- | --- | --- |
| O=C(Nc1ccc(CN2CCOCC2)cc1)c1sc2ncnc3c2c1NC(=O)N3c1cccc(Br)c1 [Cpd 36, 5-(3-bromo-phenyl)-4-oxo-4,5-dihydro-3H-1-thia-3,5,6,8-tetraaza-acenaphthylene-2-carboxylic acid (4-morpholin-4-ylmethyl-phenyl)-amide] | > 20 | 60 | 295 |  |  |  |  |
| O=C(O)c1sc2ncnc3c2c1NC(=O)N3c1ccc(OCc2ccccn2)c(Cl)c1 [Cpd 38, 5-[3-chloro-4-(pyridin-2-ylmethoxy)-phenyl]-4-oxo-4,5-dihydro-3H-1-thia-3,5,6,8-tetraaza-acenaphthylene-2-carboxylic acid] |  | -7 |  | 7 | -16 |  |  |
| COc1cc(N2C(=O)Nc3c(C(=O)Nc4ccc(CN5CCCC5)cc4)sc4ncnc2c34)c(Cl)cc1Cl [Cpd 43, 5-(2,4-dichloro-5-methoxy-phenyl)-4-oxo-4,5-dihydro-3H-1-thia-3,5,6,8-tetraaza-acenaphthylene-2-carboxylic acid (4-pyrrolidin-1-ylmethyl-phenyl)-amide] | 4.15 | 21 |  | 53 | 71 |  |  |
| COc1ccc(NC(=O)c2sc3ncnc4c3c2NC(=O)N4c2ccc(OCc3ccccn3)c(Cl)c2)cc1OC [Cpd 48, 5-[3-chloro-4-(pyridin-2-ylmethoxy)-phenyl]-4-oxo-4,5-dihydro-3H-1-thia-3,5,6,8-tetraaza-acenaphthylene-2-carboxylic acid (3,4-dimethoxy-phenyl)-amide] |  | 45 |  | 7 | 14 |  |  |
| COc1ccc(Cl)c(N2C(=O)Nc3c(C(=O)Nc4ccc(OC)c(OC)c4)sc4ncnc2c34)c1 [Cpd 49, 5-(2-chloro-5-methoxy-phenyl)-4-oxo-4,5-dihydro-3H-1-thia-3,5,6,8-tetraaza-acenaphthylene-2-carboxylic acid (3,4-dimethoxy-phenyl)-amide] | > 200 | -5 |  | 23 | 50 |  |  |
| COc1ccc(Cl)c(N2C(=O)Nc3c(C(=O)Nc4ccc(OCCN5CCOCC5)c(OC)c4)sc4ncnc2c34)c1 [Cpd 50, 5-(2-chloro-5-methoxy-phenyl)-4-oxo-4,5-dihydro-3H-1-thia-3,5,6,8-tetraaza-acenaphthylene-2-carboxylic acid [3-methoxy-4-(2-morpholin-4-yl-ethoxy)-phenyl]-amide] | 8.09 | -5 |  | 20 | 60 |  |  |
| COc1ccc(Cl)c(N2C(=O)Nc3c(C(=O)Nc4ccc(CN5CCOCC5)cc4)sc4ncnc2c34)c1 [Cpd 51, 5-(2-chloro-5-methoxy-phenyl)-4-oxo-4,5-dihydro-3H-1-thia-3,5,6,8-tetraaza-acenaphthylene-2-carboxylic acid (4-morpholin-4-ylmethyl-phenyl)-amide] | 6.58 | 28 |  | 33 | 70 |  |  |
| O=C(Nc1ccc(CN2CCOCC2)cc1)c1sc2ncnc3c2c1NC(=O)N3c1ccc(OCc2ccccn2)c(Cl)c1 [Cpd 52, 5-[3-chloro-4-(pyridin-2-ylmethoxy)-phenyl]-4-oxo-4,5-dihydro-3H-1-thia-3,5,6,8-tetraaza-acenaphthylene-2-carboxylic acid (4-morpholin-4-ylmethyl-phenyl)-amide] |  | 95 | 246 | 1 | 16.2 |  |  |
| COC(=O)c1sc2ncnc3c2c1NC(=O)N3c1c(Cl)ccc2c1OCO2 [Cpd 54, 5-(5-chloro-benzo[1,3]dioxol-4-yl)-4-oxo-4,5-dihydro-3H-1-thia-3,5,6,8-tetraaza-acenaphthylene-2-carboxylic acid methyl ester] | 1.49 | 3 |  | 42 | 52 |  |  |
| COc1cc(N2C(=O)Nc3c(C(=O)Nc4ccc(CN5CCN(C)CC5)cc4)sc4ncnc2c34)c(Cl)cc1Cl [Cpd 60] | 7.94 | 22 |  | 38 | 50 |  |  |
| O=C(Nc1ccc(CN2CCOCC2)cc1)c1sc2ncnc3c2c1NC(=O)N3c1c(Cl)ccc2c1OCO2 [Cpd 62, 5-(5-chloro-benzo[1,3]dioxol-4-yl)-4-oxo-4,5-dihydro-3H-1-thia-3,5,6,8-tetraaza-acenaphthylene-2-carboxylic acid (4-morpholin-4-ylmethyl-phenyl)-amide] | 0.075 |  | 528 | 83 | 92 |  |  |
| O=C(Nc1ccc(NCCCN2CCOCC2)nc1)c1sc2ncnc3c2c1NC(=O)N3c1cccc(Br)c1 [Cpd 64, 5-(3-bromo-phenyl)-4-oxo-4,5-dihydro-3H-1-thia-3,5,6,8-tetraaza-acenaphthylene-2-carboxylic acid [6-(3-morpholin-4-yl-propylamino)-pyridin-3-yl]-amide] |  | 57 | 447 | -14 | 26 |  |  |
| O=C(O)c1sc2ncnc3c2c1NC(=O)N3c1ccc2c(ccn2Cc2cccc(F)c2)c1 [Cpd 77, 5-[1-(3-fluoro-benzyl)-1H-indol-5-yl]-4-oxo-4,5-dihydro-3H-1-thia-3,5,6,8-tetraaza-acenaphthylene-2-carboxylic acid] | > 200 |  | 1370 | 44 |  |  |  |
| CCOC(=O)c1sc2ncnc3c2c1NC(=O)N3c1ccc2c(cnn2Cc2cccc(F)c2)c1 [Cpd 78, 5-[1-(3-fluoro-benzyl)-1H-indazol-5-yl]-4-oxo-4,5-dihydro-3H-1-thia-3,5,6,8-tetraaza-acenaphthylene-2-carboxylic acid ethyl ester] | > 200 |  | > 100000 |  |  |  |  |
| O=C(O)c1sc2ncnc3c2c1NC(=O)N3c1ccc2c(cnn2Cc2cccc(F)c2)c1 [Cpd 79, 5-[1-(3-fluoro-benzyl)-1H-indazol-5-yl]-4-oxo-4,5-dihydro-3H-1-thia-3,5,6,8-tetraaza-acenaphthylene-2-carboxylic acid] | > 200 |  | > 10000 | -17 |  |  |  |
| O=C(Nc1ccc(CN2CCCCC2)cc1)c1sc2ncnc3c2c1NC(=O)N3c1ccc2c(cnn2Cc2cccc(F)c2)c1 [Cpd 80, 5-[1-(3-fluoro-benzyl)-1H-indazol-5-yl]-4-oxo-4,5-dihydro-3H-1-thia-3,5,6,8-tetraaza-acenaphthylene-2-carboxylic acid (4-piperidin-1-ylmethyl-phenyl)-amide] | > 200 |  | 121 |  |  |  |  |
| O=C(Nc1ccc(CN2CCCCC2)cc1)c1sc2ncnc3c2c1NC(=O)N3c1ccc2c(ccn2Cc2cccc(F)c2)c1 [Cpd 87, 5-[1-(3-fluoro-benzyl)-1H-indol-5-yl]-4-oxo-4,5-dihydro-3H-1-thia-3,5,6,8-tetraaza-acenaphthylene-2-carboxylic acid (4-piperidin-1-ylmethyl-phenyl)-amide] | > 200 |  | 150 |  |  |  |  |
| CN1CCC(NC(=O)c2sc3ncnc4c3c2NC(=O)N4c2ccc3c(ccn3Cc3cccc(F)c3)c2)CC1 [Cpd 92, 5-[1-(3-fluoro-benzyl)-1H-indol-5-yl]-4-oxo-4,5-dihydro-3H-1-thia-3,5,6,8-tetraaza-acenaphthylene-2-carboxylic acid (1-methyl-piperidin-4-yl)-amide] | 0.431 |  | 360 | 65 |  | 45 |  |
| CCOC(=O)c1sc2ncnc3c2c1NC(=O)N3c1ccc(Oc2ccc(F)cc2)cc1 [Cpd 101, 5-[4-(4-fluoro-phenoxy)-phenyl]-4-oxo-4,5-dihydro-3H-1-thia-3,5,6,8-tetraaza-acenaphthylene-2-carboxylic acid ethyl ester] |  |  | > 100000 |  | 3 |  | 6 |
| CCOC(=O)c1sc2ncnc3c2c1NC(=O)N3c1cc(Br)ccc1C [Cpd 103, 5-(5-bromo-2-methyl-phenyl)-4-oxo-4,5-dihydro-3H-1-thia-3,5,6,8-tetraaza-acenaphthylene-2-carboxylic acid ethyl ester] |  |  | > 100000 | 14 |  | 18 |  |
| O=C(Nc1ccc(CN2CCCCC2)cc1)c1sc2ncnc3c2c1NC(=O)N3c1ccc(Sc2ccccc2)cc1 [Cpd 169, 4-oxo-5-(4-phenylsulfanyl-phenyl)-4,5-dihydro-3H-1-thia-3,5,6,8-tetraaza-acenaphthylene-2-carboxylic acid (4-piperidin-1-ylmethyl-phenyl)-amide] |  |  | 26 |  |  |  |  |
| O=C(Nc1ccc(CN2CCOCC2)cc1)c1sc2ncnc3c2c1NC(=O)N3c1ccc(Sc2ccccc2)cc1 [Cpd 178, 4-oxo-5-(4-phenylsulfanyl-phenyl)-4,5-dihydro-3H-1-thia-3,5,6,8-tetraaza-acenaphthylene-2-carboxylic acid (4-morpholin-4-ylmethyl-phenyl)-amide] |  |  | 56 |  |  |  |  |

— patent US7579356B2, “Thia-tetraazaacenaphthylene kinase inhibitors” (Janssen Pharmaceutica NV, priority 2005, dated 2009)
